Where two headings read alike, the source gives them in different places.
What was measured:
Assay in all cases: biochemical
Assay type in all cases: binding
[1] = target: 468 kinases including some pathogenic mutants (Homo sapiens, UniProt Q9HBH9); settings: MKNK2 (Entrez MKNK2), 1000 nM; read-out: Percent Control
[2] = target: 468 kinases including some pathogenic mutants (Homo sapiens, UniProt P36507); settings: MEK2 (Entrez MAP2K2), 1000 nM; read-out: Percent Control
[3] = target: 468 kinases including some pathogenic mutants (Homo sapiens, UniProt P35626); settings: GRK3 (Entrez ADRBK2), 100 nM; read-out: Percent Control
[4] = target: 468 kinases including some pathogenic mutants (Homo sapiens, UniProt P42336, H1047Y); settings: read-out: Percent Control
[5] = target: 468 kinases including some pathogenic mutants (Homo sapiens, UniProt P10721); settings: 100 nM, read-out: Percent Control
Sequence of 468 kinases including some pathogenic mutants (Homo sapiens, UniProt P10721) (P10721 26-976, change not shown): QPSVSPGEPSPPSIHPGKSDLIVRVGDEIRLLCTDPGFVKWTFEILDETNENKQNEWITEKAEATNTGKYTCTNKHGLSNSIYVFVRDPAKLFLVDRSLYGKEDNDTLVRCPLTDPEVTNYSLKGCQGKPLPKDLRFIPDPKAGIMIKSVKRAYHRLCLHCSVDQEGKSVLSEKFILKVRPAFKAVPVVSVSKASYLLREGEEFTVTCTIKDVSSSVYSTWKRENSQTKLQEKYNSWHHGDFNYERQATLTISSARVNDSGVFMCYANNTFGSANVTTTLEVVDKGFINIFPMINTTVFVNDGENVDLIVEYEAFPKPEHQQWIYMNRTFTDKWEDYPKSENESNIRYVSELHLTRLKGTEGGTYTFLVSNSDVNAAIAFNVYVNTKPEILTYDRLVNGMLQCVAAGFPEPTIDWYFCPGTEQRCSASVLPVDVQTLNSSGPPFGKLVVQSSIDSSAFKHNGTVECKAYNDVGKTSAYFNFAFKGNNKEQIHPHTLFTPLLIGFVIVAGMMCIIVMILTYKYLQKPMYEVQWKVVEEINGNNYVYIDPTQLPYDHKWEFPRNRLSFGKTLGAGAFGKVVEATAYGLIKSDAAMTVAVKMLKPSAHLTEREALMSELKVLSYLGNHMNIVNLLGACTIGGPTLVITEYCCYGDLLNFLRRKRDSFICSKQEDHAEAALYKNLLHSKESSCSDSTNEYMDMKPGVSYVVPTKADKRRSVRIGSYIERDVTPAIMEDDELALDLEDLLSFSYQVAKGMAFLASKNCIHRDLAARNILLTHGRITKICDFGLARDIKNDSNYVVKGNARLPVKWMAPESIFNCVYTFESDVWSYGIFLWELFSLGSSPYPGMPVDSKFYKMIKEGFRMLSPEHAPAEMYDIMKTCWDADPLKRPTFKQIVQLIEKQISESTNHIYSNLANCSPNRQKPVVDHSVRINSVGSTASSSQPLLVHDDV

[6] = target: 468 kinases including some pathogenic mutants (Homo sapiens, UniProt O43353); settings: RIPK2 (Entrez RIPK2), 100 nM; read-out: Percent Control
Sequence of 468 kinases including some pathogenic mutants (Homo sapiens, UniProt O43353) (O43353 whole entry, change not shown): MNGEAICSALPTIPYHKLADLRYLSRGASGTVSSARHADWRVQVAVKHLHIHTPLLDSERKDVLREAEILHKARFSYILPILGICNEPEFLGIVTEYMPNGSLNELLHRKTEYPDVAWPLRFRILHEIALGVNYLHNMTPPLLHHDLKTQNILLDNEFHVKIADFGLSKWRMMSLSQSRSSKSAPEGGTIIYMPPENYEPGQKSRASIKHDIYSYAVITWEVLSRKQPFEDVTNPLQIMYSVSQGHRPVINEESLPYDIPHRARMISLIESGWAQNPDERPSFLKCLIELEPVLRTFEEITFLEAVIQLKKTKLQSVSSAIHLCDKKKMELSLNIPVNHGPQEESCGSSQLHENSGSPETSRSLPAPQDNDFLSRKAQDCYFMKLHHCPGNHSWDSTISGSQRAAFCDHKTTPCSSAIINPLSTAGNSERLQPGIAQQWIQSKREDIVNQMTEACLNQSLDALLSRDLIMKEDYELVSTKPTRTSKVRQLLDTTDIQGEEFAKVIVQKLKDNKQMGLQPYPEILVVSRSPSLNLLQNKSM

[7] = target: 468 kinases including some pathogenic mutants (Homo sapiens, UniProt P42681); settings: TXK (Entrez TXK), 100 nM; read-out: Percent Control
Sequence of 468 kinases including some pathogenic mutants (Homo sapiens, UniProt P42681) (P42681 whole entry, change not shown): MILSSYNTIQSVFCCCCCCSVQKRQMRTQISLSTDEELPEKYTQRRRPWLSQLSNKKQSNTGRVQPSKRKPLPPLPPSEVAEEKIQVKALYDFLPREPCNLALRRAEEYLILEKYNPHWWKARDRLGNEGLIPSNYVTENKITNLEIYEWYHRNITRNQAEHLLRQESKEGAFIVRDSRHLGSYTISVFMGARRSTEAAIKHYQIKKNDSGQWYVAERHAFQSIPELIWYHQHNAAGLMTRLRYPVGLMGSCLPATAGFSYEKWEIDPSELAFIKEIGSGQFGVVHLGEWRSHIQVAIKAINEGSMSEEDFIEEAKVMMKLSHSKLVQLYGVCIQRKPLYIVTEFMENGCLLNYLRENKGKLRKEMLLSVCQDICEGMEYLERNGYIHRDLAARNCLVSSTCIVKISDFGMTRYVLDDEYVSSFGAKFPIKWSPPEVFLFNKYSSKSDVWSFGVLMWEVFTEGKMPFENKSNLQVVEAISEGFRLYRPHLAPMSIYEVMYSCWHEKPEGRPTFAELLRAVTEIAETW

[8] = target: 468 kinases including some pathogenic mutants (Homo sapiens, UniProt P08581); settings: MET (Entrez MET), 100 nM; read-out: Percent Control
[9] = target: 468 kinases including some pathogenic mutants (Homo sapiens, UniProt Q13523); settings: PRP4 (Entrez PRPF4B), 1000 nM; read-out: Percent Control
[10] = target: 468 kinases including some pathogenic mutants (Homo sapiens, UniProt P36888, N841I); settings: read-out: Percent Control
[11] = target: 468 kinases including some pathogenic mutants (Homo sapiens, UniProt Q15759); settings: p38-beta (Entrez MAPK11), 100 nM; read-out: Percent Control
Sequence of 468 kinases including some pathogenic mutants (Homo sapiens, UniProt Q15759) (Q15759 whole entry, change not shown): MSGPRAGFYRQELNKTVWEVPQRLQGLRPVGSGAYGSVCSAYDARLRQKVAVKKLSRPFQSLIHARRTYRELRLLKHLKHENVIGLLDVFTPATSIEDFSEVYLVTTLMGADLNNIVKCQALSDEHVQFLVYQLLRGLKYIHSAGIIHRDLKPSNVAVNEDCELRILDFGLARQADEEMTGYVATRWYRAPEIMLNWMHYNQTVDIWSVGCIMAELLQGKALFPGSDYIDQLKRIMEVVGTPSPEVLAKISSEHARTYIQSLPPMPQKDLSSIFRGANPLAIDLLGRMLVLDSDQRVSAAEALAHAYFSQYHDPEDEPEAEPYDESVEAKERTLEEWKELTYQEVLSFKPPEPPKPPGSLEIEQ

[12] = target: 468 kinases including some pathogenic mutants (Homo sapiens, UniProt P07333); settings: CSF1R-autoinhibited (Entrez CSF1R), 100 nM; read-out: Percent Control
[13] = target: 468 kinases including some pathogenic mutants (Homo sapiens, UniProt O75385); settings: ULK1 (Entrez ULK1), 1000 nM; read-out: Percent Control
[14] = target: 468 kinases including some pathogenic mutants (Homo sapiens, UniProt Q9Y4K4); settings: MAP4K5 (Entrez MAP4K5), 100 nM; read-out: Percent Control
Sequence of 468 kinases including some pathogenic mutants (Homo sapiens, UniProt Q9Y4K4) (Q9Y4K4 whole entry, change not shown): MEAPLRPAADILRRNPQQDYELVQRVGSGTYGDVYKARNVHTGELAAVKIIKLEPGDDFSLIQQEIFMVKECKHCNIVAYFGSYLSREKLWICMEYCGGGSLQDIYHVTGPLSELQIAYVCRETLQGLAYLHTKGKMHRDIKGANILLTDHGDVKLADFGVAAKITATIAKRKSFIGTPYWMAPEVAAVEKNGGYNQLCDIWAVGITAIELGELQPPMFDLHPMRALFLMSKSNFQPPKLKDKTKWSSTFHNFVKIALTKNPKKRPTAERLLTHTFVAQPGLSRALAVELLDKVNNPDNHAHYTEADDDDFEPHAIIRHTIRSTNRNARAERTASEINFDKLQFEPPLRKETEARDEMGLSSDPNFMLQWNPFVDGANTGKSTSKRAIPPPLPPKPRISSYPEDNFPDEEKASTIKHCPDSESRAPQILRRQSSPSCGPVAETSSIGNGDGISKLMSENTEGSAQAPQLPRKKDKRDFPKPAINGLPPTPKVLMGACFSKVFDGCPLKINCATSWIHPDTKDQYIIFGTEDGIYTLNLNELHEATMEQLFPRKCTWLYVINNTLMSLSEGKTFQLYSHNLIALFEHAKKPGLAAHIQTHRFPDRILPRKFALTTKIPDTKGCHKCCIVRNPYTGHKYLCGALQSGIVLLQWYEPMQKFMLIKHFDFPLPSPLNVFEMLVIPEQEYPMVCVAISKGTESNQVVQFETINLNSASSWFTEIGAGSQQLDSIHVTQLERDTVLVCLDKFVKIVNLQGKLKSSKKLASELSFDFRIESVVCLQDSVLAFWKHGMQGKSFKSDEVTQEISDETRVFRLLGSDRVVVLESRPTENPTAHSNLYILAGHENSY

[15] = target: 468 kinases including some pathogenic mutants (Homo sapiens, UniProt Q04759); settings: PRKCQ (Entrez PRKCQ), 100 nM; read-out: Percent Control
[16] = target: 468 kinases including some pathogenic mutants (Homo sapiens, UniProt Q02779); settings: MLK2 (Entrez MAP3K10), 100 nM; read-out: Percent Control
[17] = target: 468 kinases including some pathogenic mutants (Homo sapiens, UniProt P0C1S8); settings: WEE2 (Entrez WEE2), 100 nM; read-out: Percent Control
Sequence of 468 kinases including some pathogenic mutants (Homo sapiens, UniProt P0C1S8) (P0C1S8 whole entry, change not shown): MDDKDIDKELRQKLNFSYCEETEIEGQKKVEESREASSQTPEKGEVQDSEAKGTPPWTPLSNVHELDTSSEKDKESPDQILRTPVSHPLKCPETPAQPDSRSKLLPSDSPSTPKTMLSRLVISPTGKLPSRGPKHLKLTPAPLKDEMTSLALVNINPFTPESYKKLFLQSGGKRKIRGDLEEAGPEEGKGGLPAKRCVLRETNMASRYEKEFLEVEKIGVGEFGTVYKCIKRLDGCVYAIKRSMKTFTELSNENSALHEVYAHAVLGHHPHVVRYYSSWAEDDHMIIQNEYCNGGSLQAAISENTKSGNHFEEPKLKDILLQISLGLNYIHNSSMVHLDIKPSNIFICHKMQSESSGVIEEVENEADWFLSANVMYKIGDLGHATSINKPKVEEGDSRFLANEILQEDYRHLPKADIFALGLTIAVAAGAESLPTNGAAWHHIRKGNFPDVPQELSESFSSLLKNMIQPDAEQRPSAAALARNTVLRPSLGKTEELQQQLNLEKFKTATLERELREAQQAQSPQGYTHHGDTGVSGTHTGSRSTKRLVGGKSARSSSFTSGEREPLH

[18] = target: 468 kinases including some pathogenic mutants (Homo sapiens, UniProt Q9NRH2); settings: SNRK (Entrez SNRK), 1000 nM; read-out: Percent Control
[19] = target: 468 kinases including some pathogenic mutants (Homo sapiens, UniProt Q15139); settings: PRKD1 (Entrez PRKD1), 100 nM; read-out: Percent Control
[20] = target: 468 kinases including some pathogenic mutants (Homo sapiens, UniProt P11802); settings: 100 nM, read-out: Percent Control
Sequence of 468 kinases including some pathogenic mutants (Homo sapiens, UniProt P11802) (P11802 whole entry, change not shown): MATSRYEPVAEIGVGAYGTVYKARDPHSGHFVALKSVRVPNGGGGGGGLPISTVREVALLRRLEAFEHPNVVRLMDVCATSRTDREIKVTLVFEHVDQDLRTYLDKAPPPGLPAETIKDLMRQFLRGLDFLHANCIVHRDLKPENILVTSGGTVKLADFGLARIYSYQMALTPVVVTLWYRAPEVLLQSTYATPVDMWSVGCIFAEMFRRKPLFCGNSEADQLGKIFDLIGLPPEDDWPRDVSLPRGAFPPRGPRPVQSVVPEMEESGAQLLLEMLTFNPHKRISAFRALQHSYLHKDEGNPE

[21] = target: 468 kinases including some pathogenic mutants (Homo sapiens, UniProt Q14680); settings: MELK (Entrez MELK), 1000 nM; read-out: Percent Control
[22] = target: 468 kinases including some pathogenic mutants (Homo sapiens, UniProt P22455); settings: FGFR4 (Entrez FGFR4), 100 nM; read-out: Percent Control
[23] = target: 468 kinases including some pathogenic mutants (Homo sapiens, UniProt Q8TD19); settings: NEK9 (Entrez NEK9), 100 nM; read-out: Percent Control
[24] = target: 468 kinases including some pathogenic mutants (Homo sapiens, UniProt P49840); settings: GSK3A (Entrez GSK3A), 100 nM; read-out: Percent Control
Sequence of 468 kinases including some pathogenic mutants (Homo sapiens, UniProt P49840) (P49840 whole entry, change not shown): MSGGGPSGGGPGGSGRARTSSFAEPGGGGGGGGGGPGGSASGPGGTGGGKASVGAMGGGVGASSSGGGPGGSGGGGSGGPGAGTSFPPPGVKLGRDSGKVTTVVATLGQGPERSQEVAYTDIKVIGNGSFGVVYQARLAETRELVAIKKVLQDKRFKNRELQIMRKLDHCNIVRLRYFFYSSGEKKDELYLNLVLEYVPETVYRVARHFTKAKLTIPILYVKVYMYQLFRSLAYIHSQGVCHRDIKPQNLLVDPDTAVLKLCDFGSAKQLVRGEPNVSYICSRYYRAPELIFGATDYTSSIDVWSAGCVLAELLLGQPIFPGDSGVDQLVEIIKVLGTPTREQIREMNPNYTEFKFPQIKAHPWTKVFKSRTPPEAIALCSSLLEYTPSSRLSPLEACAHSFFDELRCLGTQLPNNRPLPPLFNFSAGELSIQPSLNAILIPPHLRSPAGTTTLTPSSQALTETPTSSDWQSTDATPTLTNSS

[25] = target: 468 kinases including some pathogenic mutants (Homo sapiens, UniProt Q9NRM7); settings: LATS2 (Entrez LATS2), 100 nM; read-out: Percent Control
[26] = target: 468 kinases including some pathogenic mutants (Homo sapiens, UniProt Q8N752); settings: CSNK1A1L (Entrez CSNK1A1L), 100 nM; read-out: Percent Control
[27] = target: 468 kinases including some pathogenic mutants (Homo sapiens, UniProt Q13164); settings: ERK5 (Entrez MAPK7), 100 nM; read-out: Percent Control
[28] = target: 468 kinases including some pathogenic mutants (Homo sapiens, UniProt Q86UX6); settings: YANK3 (Entrez STK32C), 100 nM; read-out: Percent Control

Sequence of 468 kinases including some pathogenic mutants (Homo sapiens, UniProt P36507) (P36507 whole entry, change not shown): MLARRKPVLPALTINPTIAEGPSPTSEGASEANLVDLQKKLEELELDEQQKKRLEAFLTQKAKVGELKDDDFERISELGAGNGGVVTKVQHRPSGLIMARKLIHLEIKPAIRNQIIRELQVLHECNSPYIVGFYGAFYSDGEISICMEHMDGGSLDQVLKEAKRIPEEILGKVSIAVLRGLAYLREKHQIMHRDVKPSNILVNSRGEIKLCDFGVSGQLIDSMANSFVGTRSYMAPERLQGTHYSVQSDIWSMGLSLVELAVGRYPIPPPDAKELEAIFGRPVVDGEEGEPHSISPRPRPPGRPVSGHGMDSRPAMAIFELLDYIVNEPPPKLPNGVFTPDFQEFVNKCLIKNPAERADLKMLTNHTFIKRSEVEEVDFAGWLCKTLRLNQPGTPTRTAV

For CN1C(=O)[C@@H](N2CCc3c(nn(Cc4ccccc4)c3C(N)=O)C2=O)COc2cc(Cl)ccc21 [Compound 10, (S)-2-benzyl-6-(8-chloro-5-methyl-4-oxo-2,3,4,5-tetrahydrobenzo[b][1,4]oxazepin-3-yl)-7-oxo-4,5,6,7-tetrahydro-2H-pyrazolo[3,4-c]pyridine-3-carboxamide], the remaining activity at 1 µM [1] was 100%, the remaining activity at 1 µM [2] was 100% and the remaining activity at 0.1 µM [3] was 98%. For the same molecule, the remaining activity at 1 µM [4] was 100%, the remaining activity at 0.1 µM ([5]; KIT (Entrez KIT)) was 69% and the remaining activity at 0.1 µM ([5]; KIT-autoinhibited (Entrez KIT)) was 100%. For the same molecule, the remaining activity at 0.1 µM [6] was 87%, the remaining activity at 0.1 µM [7] was 88% and the remaining activity at 0.1 µM [8] was 99%. For the same molecule, the remaining activity at 1 µM [9] was 100%, the remaining activity at 0.1 µM [10] was 72% and the remaining activity at 0.1 µM [11] was 100%. It also gave a remaining activity at 0.1 µM [12] of 80%, a remaining activity at 1 µM [13] of 100% and a remaining activity at 0.1 µM [14] of 100%. It also gave a remaining activity at 0.1 µM [15] of 88%, a remaining activity at 0.1 µM [16] of 64% and a remaining activity at 0.1 µM [17] of 77%. The remaining activity at 1 µM [18] was 100%, the remaining activity at 0.1 µM [19] was 65% and the remaining activity at 0.1 µM ([20]; CDK4 (Entrez CDK4)) was 94%. It also gave a remaining activity at 0.1 µM ([20]; CDK4-cyclinD1 (Entrez CDK4)) of 77%, a remaining activity at 0.1 µM ([20]; CDK4-cyclinD3 (Entrez CDK4)) of 92% and a remaining activity at 1 µM [21] of 100%. For the same molecule, the remaining activity at 0.1 µM [22] was 81%, the remaining activity at 0.1 µM [23] was 88% and the remaining activity at 0.1 µM [24] was 100%. For the same molecule, the remaining activity at 0.1 µM [25] was 68%, the remaining activity at 0.1 µM [26] was 86% and the remaining activity at 0.1 µM [27] was 85%. The remaining activity at 0.1 µM [28] was 86%.

From paper PMC12090182, “Repurposing of the RIPK1-Selective Benzo[1,4]oxazepin-4-one Scaffold for the Development of a Type III LIMK1/2 Inhibitor” (ACS Chemical Biology, 2025)
